Experimental data from ChEMBL document CHEMBL5500360, “Discovery of N-(4-((6-(3,5- Dimethoxyphenyl)-9H-purine derivatives as irreversible covalent FGFR inhibitors” (Eur J Med Chem, 2024).

Experiments:
[1] = tested on: Cell membrane; assay: Induction of mitochondrial membrane potential loss in human MDA-MB-231 cells assessed as increase in JC-1 monomer by measuring green fluorescence incubated for 12 hrs by confocal microscopic analysis; format: cell membranes; settings: dose 2.5-10 µM
[2] = Metabolic stability in human liver microsomes assessed as half-life at 1 uM incubated for 45 mins by LC-MS/MS analysis; format: ADME, Microsome
[3] = Metabolic stability in human liver microsomes assessed as parent compound remaining at 1 uM measured after 15 mins by LC-MS/MS analysis; format: ADME, Microsome; settings: read-out: Stability
[4] = tested on: MDA-MB-231; assay: Induction of apoptosis in human MDA-MB-231 cells assessed as necrotic cells at 10 uM incubated for 24 hrs by Annexin V-FITC/PI staining based flow cytometric analysis (reference value: 0.063 %); format: functional
[5] = tested on: MDA-MB-231; assay: Antitumor activity against human MDA-MB-231 cells xenografted in female BALB/c athymic nude mouse assessed as tumor growth inhibition at 20 mg/kg, po administered once a day via gavage for 21 days relative to control; format: functional; settings: MDA-MB-231, 504 h, time 21 day, read-out: TGI
[6] = Toxicity in BALB/c athymic nude mouse xenografted with human MDA-MB-231 cells assessed as effect on liver at 10 to 30 mg/kg, po administered once a day via gavage for 21 days by H and E staining based analysis; format: organism-based; settings: in vivo, 504 h, dose 10-30 mg/kg, time 21 day
[7] = target: Fibroblast growth factor receptor 3 (Homo sapiens, UniProt P22607); assay: Inhibition of FGFR3 (unknown origin) by ELISA
[8] = tested on: HepG2; assay: cells; settings: Homo sapiens, HepG2, 72 h
[9] = tested on: MDA-MB-231; assay: Induction of apoptosis in human MDA-MB-231 cells assessed as apoptotic cells at 5 uM incubated for 24 hrs by Annexin V-FITC/PI staining based flow cytometric analysis relative to control; format: functional
[10] = Metabolic stability in mouse liver microsomes assessed as parent compound remaining at 1 uM measured after 45 mins by LC-MS/MS analysis; format: ADME, Microsome; settings: read-out: Stability
[11] = tested on: MDA-MB-231; assay: Cell cycle arrest in human MDA-MB-231 cells assessed as accumulation of S phase cells at 5 uM incubated for 24 hrs by […]PI staining based flow cytometric analysis (reference value: 41.29%); format: functional
[12] = tested on: MDA-MB-231; assay: Antitumor activity against human MDA-MB-231 cells xenografted in female BALB/c athymic nude mouse assessed as tumor growth inhibition at 10 mg/kg, po administered once a day via gavage for 21 days relative to control; format: functional; settings: MDA-MB-231, 504 h, time 21 day, read-out: TGI
[13] = Metabolic stability in mouse liver microsomes assessed as parent compound remaining at 1 uM measured after 15 mins by LC-MS/MS analysis; format: ADME, Microsome; settings: read-out: Stability
[14] = target: Fibroblast growth factor receptor 2 (Homo sapiens, UniProt P21802); assay: Inhibition of FGFR2 (unknown origin) by ELISA
[15] = tested on: MDA-MB-231; assay: Induction of apoptosis in human MDA-MB-231 cells assessed as inhibition of total PARP protein expression incubated for 24 hrs by Western blot analysis; format: functional, cell-based; settings: dose 2.5-10 µM
[16] = Metabolic stability in rat liver microsomes assessed as parent compound remaining at 1 uM measured after 30 mins by LC-MS/MS analysis; format: ADME, Microsome; settings: read-out: Stability
[17] = Metabolic stability in rat liver microsomes assessed as parent compound remaining at 1 uM measured after 5 mins by LC-MS/MS analysis; format: ADME, Microsome; settings: read-out: Stability
[18] = Metabolic stability in mouse liver microsomes assessed as parent compound remaining at 1 uM measured after 5 mins by LC-MS/MS analysis; format: ADME, Microsome; settings: read-out: Stability
[19] = in vitro; settings: human, HUVEC cells
Description: Cytotoxicity against HUVEC cells assessed as inhibition of cell growth incubated for 72 hrs by MTT assay

[20] = tested on: MDA-MB-231; assay: Cell cycle arrest in human MDA-MB-231 cells assessed as accumulation of G0-G1 phase cells at 2.5 uM incubated for 24 hrs by […]PI staining based flow cytometric analysis (reference value: 41.83%); format: functional
[21] = Metabolic stability in mouse liver microsomes assessed as half-life at 1 uM incubated for 45 mins by LC-MS/MS analysis; format: ADME, Microsome
[22] = Metabolic stability in rat liver microsomes assessed as parent compound remaining at 1 uM measured after 15 mins by LC-MS/MS analysis; format: ADME, Microsome; settings: read-out: Stability
[23] = tested on: MDA-MB-231; assay: Induction of apoptosis in human MDA-MB-231 cells assessed as inhibition of Bcl-2 protein expression incubated for 24 hrs by Western blot analysis; format: functional, cell-based; settings: dose 2.5-10 µM
[24] = tested on: MDA-MB-231; assay: Induction of apoptosis in human MDA-MB-231 cells assessed as early apoptotic cells at 10 uM incubated for 24 hrs by Annexin V-FITC/PI staining based flow cytometric analysis (reference value: 0.131 %); format: functional
[25] = Toxicity in BALB/c athymic nude mouse xenografted with human MDA-MB-231 cells assessed as effect on spleen at 10 to 30 mg/kg, po administered once a day via gavage for 21 days by H and E staining based analysis; format: organism-based; settings: in vivo, 504 h, dose 10-30 mg/kg, time 21 day
[26] = tested on: MDA-MB-231; assay: Induction of apoptosis in human MDA-MB-231 cells assessed as increase in Bax protein expression incubated for 24 hrs by Western blot analysis; format: functional, cell-based; settings: dose 2.5-10 µM
[27] = tested on: MDA-MB-231; assay: Induction of apoptosis in human MDA-MB-231 cells assessed as late apoptotic cells at 2.5 uM incubated for 24 hrs by Annexin V-FITC/PI staining based flow cytometric analysis (reference value: 0.161 %); format: functional
[28] = tested on: MDA-MB-231; assay: Cell cycle arrest in human MDA-MB-231 cells assessed as accumulation of S phase cells at 10 uM incubated for 24 hrs by […]PI staining based flow cytometric analysis (reference value: 41.29%); format: functional
[29] = tested on: MDA-MB-231; assay: cells; settings: Homo sapiens, MDA-MB-231, 72 h
[30] = tested on: MDA-MB-231; assay: Cell cycle arrest in human MDA-MB-231 cells assessed as accumulation of G2-M phase cells at 2.5 uM incubated for 24 hrs by […]PI staining based flow cytometric analysis (reference value: 16.88%); format: functional
[31] = Metabolic stability in rat liver microsomes assessed as intrinsic clearance at 1 uM incubated for 45 mins by LC-MS/MS analysis; format: ADME, Microsome; settings: read-out: CLH

Fibroblast growth factor receptor 3, sequence (P22607 whole entry): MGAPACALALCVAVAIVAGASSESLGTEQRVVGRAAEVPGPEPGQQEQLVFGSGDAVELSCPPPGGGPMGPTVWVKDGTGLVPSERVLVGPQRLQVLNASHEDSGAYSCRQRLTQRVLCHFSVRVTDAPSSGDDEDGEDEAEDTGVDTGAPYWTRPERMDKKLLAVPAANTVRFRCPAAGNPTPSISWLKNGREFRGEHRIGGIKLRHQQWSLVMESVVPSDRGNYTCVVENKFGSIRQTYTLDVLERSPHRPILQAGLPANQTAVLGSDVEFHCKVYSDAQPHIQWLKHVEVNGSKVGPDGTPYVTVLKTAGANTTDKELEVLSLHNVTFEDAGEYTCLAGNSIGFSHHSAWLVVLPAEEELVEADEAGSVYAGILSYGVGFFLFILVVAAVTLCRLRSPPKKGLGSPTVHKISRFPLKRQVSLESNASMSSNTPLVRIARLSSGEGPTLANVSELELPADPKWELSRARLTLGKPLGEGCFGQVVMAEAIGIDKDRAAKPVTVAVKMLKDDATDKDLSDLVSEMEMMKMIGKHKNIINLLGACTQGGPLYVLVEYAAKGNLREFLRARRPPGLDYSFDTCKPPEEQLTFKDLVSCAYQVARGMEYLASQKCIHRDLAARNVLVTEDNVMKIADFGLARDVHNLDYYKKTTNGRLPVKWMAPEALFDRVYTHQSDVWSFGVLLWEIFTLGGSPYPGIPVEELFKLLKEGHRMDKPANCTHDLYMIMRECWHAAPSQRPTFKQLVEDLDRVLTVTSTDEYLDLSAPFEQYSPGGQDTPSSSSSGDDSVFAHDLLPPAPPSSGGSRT
Fibroblast growth factor receptor 2, sequence (P21802 whole entry): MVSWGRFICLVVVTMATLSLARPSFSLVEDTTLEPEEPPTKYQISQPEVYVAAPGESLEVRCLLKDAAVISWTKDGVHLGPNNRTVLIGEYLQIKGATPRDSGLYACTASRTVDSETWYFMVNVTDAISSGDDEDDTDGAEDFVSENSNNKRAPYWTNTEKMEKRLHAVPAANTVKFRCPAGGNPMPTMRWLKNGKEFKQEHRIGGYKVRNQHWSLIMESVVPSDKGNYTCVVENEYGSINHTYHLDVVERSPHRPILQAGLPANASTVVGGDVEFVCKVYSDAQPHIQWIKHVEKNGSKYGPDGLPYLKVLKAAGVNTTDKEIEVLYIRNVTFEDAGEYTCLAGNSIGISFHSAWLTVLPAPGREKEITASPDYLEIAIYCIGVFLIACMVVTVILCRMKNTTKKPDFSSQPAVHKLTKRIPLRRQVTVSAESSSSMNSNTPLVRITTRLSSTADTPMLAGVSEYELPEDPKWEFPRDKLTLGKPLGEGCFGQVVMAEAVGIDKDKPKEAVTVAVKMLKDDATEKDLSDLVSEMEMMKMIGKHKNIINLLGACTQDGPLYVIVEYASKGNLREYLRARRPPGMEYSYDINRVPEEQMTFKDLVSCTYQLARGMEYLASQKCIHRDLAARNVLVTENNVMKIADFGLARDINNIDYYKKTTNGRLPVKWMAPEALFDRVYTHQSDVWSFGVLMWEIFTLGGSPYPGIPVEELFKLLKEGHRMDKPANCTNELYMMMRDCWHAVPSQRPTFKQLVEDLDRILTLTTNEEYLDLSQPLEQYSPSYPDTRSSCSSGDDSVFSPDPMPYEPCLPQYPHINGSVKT

Question: Which results are given for C=CC(=O)Nc1ccc(Cn2cnc3c(-c4cc(OC)cc(OC)c4)ncnc32)cc1?
Answer: Activity [1]: Dose-Dependent Effect; half-life at 1 µM [2]: 41.4 min; remaining at 0.25 h, 1 µM [3]: 63.5%; Activity [4]: 1.66%; inhibition in vivo at 20 mg/kg [5]: 64.2%; Activity [6]: Non-Toxic; IC50 [7]: 0.64 nM; IC50 [8]: 7930 nM; Activity [9]: 45.4%; remaining at 0.75 h, 1 µM [10]: 3.58%; Activity [11]: 22.82%; inhibition in vivo at 10 mg/kg [12]: 40.2%; remaining at 0.25 h, 1 µM [13]: 27.2%; IC50 [14]: 0.89 nM; Activity [15]: Dose-Dependent Effect; remaining at 0.5 h, 1 µM [16]: 18.6%; remaining at 5 min, 1 µM [17]: 73.4%; remaining at 5 min, 1 µM [18]: 61.5%; IC50 at 72 h [19]: 82100 nM; Activity [20]: 50.81%; half-life at 1 µM [21]: 12.9 min; remaining at 0.25 h, 1 µM [22]: 40%; Activity [23]: Dose-Dependent Effect; Activity [24]: 45.4%; Activity [25]: Non-Toxic; Activity [26]: Dose-Dependent Effect; Activity [27]: 6.16%; Activity [28]: 10.73%; IC50 [29]: 1890 nM; Activity [30]: 14.94%; CLint scaled at 1 µM [31]: 156 mL/min/kg
